Test system: 454973-116-R2-J3-PDC complex spheroid viability
Experiment: Anticancer human tumor 454973-116-R2-J3-PDC patient-derived pancreatic carcinoma cell line growth inhibition [POLQ]
Settings: for IC50: curve of first compound; for viability, T/C: stronger effect = lower value
Method in brief: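 PDC + HUVEC + MSC complex spheroids; POLQ inhibitors ± partner drugs; top conc. at/near clinical Cmax, else 10 microM (SN-38 1 microM), half-log dilutions; 37 degrees C, 5% CO2.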

[1] = second compound 0.0316 µM, first compound 0.0316 µM
[2] = second compound 0.0316 µM, first compound 0.1 µM
[3] = second compound 0.0316 µM, first compound 0.316 µM
[4] = second compound 0.0316 µM, first compound 1 µM
[5] = second compound 0.0316 µM, first compound 3.16 µM
[6] = second compound 0.0316 µM, first compound 10 µM
[7] = second compound 0.1 µM, first compound 0.0316 µM
[8] = second compound 0.1 µM, first compound 0.1 µM
[9] = second compound 0.1 µM, first compound 0.316 µM
[10] = second compound 0.1 µM, first compound 1 µM
[11] = second compound 0.1 µM, first compound 3.16 µM
[12] = second compound 0.1 µM, first compound 10 µM
[13] = second compound 0.316 µM, first compound 0.0316 µM
[14] = second compound 0.316 µM, first compound 0.1 µM
[15] = second compound 0.316 µM, first compound 0.316 µM
[16] = second compound 0.316 µM, first compound 1 µM
[17] = second compound 0.316 µM, first compound 3.16 µM
[18] = second compound 0.316 µM, first compound 10 µM
[19] = second compound 1 µM, first compound 0.0316 µM
[20] = second compound 1 µM, first compound 0.1 µM
[21] = second compound 1 µM, first compound 0.316 µM
[22] = second compound 1 µM, first compound 1 µM
[23] = second compound 1 µM, first compound 3.16 µM
[24] = second compound 1 µM, first compound 10 µM
[25] = second compound 3.16 µM, first compound 0.0316 µM
[26] = second compound 3.16 µM, first compound 0.1 µM
[27] = second compound 3.16 µM, first compound 0.316 µM
[28] = second compound 3.16 µM, first compound 1 µM
[29] = second compound 3.16 µM, first compound 3.16 µM
[30] = second compound 3.16 µM, first compound 10 µM
[31] = second compound 10 µM, first compound 0.0316 µM
[32] = second compound 10 µM, first compound 0.1 µM
[33] = second compound 10 µM, first compound 0.316 µM
[34] = second compound 10 µM, first compound 1 µM
[35] = second compound 10 µM, first compound 3.16 µM
[36] = second compound 10 µM, first compound 10 µM
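Further: spheroids exposed to drugs for seven days before measurement.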
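Wherever viability, T/C is given: percent viability relative to DMSO vehicle control wells taken as 100%.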

CC(C)n1c(=O)n(C)c2cnc3cc(F)c(-c4ccc(OCCCN5CCCCC5)nc4)cc3c21 + Cc1cccc(N(C)C(=O)C2C(O)CCN2c2nc(C)cc(C(F)(F)F)c2C#N)c1
IC50 (second compound 0.0316 µM): > 10000 nM
IC50 (second compound 0.1 µM): > 10000 nM
IC50 (second compound 0.316 µM): > 10000 nM
IC50 (second compound 1 µM): > 10000 nM
IC50 (second compound 3.16 µM): > 10000 nM
IC50 (second compound 10 µM): > 10000 nM
viability, T/C [1]: 97.4%
viability, T/C [2]: 96.4%
viability, T/C [3]: 103%
viability, T/C [4]: 99.7%
viability, T/C [5]: 105%
viability, T/C [6]: 77.2%
viability, T/C [7]: 97.3%
viability, T/C [8]: 105%
viability, T/C [9]: 101%
viability, T/C [10]: 113%
viability, T/C [11]: 107%
viability, T/C [12]: 85%
viability, T/C [13]: 105%
viability, T/C [14]: 110%
viability, T/C [15]: 114%
viability, T/C [16]: 104%
viability, T/C [17]: 97.1%
viability, T/C [18]: 86.8%
viability, T/C [19]: 103%
viability, T/C [20]: 105%
viability, T/C [21]: 110%
viability, T/C [22]: 116%
viability, T/C [23]: 104%
viability, T/C [24]: 87.3%
viability, T/C [25]: 109%
viability, T/C [26]: 106%
viability, T/C [27]: 108%
viability, T/C [28]: 99.3%
viability, T/C [29]: 101%
viability, T/C [30]: 86%
viability, T/C [31]: 114%
viability, T/C [32]: 110%
viability, T/C [33]: 96.6%
viability, T/C [34]: 98.6%
viability, T/C [35]: 97.3%
viability, T/C [36]: 79%

CC1COCCN1c1cc(-c2ccnn2C)c2ccnc(-c3ccn[nH]3)c2n1 (centres undefined) + Cc1cccc(N(C)C(=O)C2C(O)CCN2c2nc(C)cc(C(F)(F)F)c2C#N)c1
IC50 (second compound 0.0316 µM): 207 nM
IC50 (second compound 0.1 µM): 202 nM
IC50 (second compound 0.316 µM): 198 nM
IC50 (second compound 1 µM): 195 nM
IC50 (second compound 3.16 µM): 192 nM
IC50 (second compound 10 µM): 181 nM
viability, T/C [1]: 95.3%
viability, T/C [2]: 73.4%
viability, T/C [3]: 37%
viability, T/C [4]: 21.7%
viability, T/C [5]: 22.3%
viability, T/C [6]: 25.4%
viability, T/C [7]: 92.6%
viability, T/C [8]: 74.4%
viability, T/C [9]: 35%
viability, T/C [10]: 20.8%
viability, T/C [11]: 21.3%
viability, T/C [12]: 27.8%
viability, T/C [13]: 97.2%
viability, T/C [14]: 73.3%
viability, T/C [15]: 34.5%
viability, T/C [16]: 20%
viability, T/C [17]: 20.1%
viability, T/C [18]: 25%
viability, T/C [19]: 105%
viability, T/C [20]: 71.7%
viability, T/C [21]: 35.3%
viability, T/C [22]: 21.3%
viability, T/C [23]: 22%
viability, T/C [24]: 25.4%
viability, T/C [25]: 113%
viability, T/C [26]: 71.8%
viability, T/C [27]: 34.1%
viability, T/C [28]: 21.7%
viability, T/C [29]: 21.8%
viability, T/C [30]: 26.4%
viability, T/C [31]: 97.9%
viability, T/C [32]: 67.7%
viability, T/C [33]: 34.2%
viability, T/C [34]: 19.5%
viability, T/C [35]: 24.4%
viability, T/C [36]: 23.1%

— PubChem BioAssay AID1963846 (Molecular Pharmacology Branch, DTP, NCI, 2024)
